Measured values from article PMC5028780, “Receptor and transporter binding and activity profiles of albiflorin extracted from Radix paeoniae Alba” (Scientific Reports, 2016).

What was measured:
[1] = target: T1, D3 (Homo sapiens, UniProt P35462); assay: CNS receptor binding, dopamine D3; conditions: CHO cell lines, [3H]-spiperone(1), read-out: IC50 values for albiflorin
T1 construct: expressed in transfected cells; host or cells: CHO cell lines
Description: (§1) Albiflorin (10 μM) was tested for numerous other potential binding targets by using standard receptor binding procedures. The tested targets included the following receptors: D1, D2, D3, D4, D5, 5-HT1A, 5-HT1B, 5-HT1D, 5-HT2a, 5-HT2C, 5-HT3, 5-HT5A, 5-HT6, 5-HT7, α1A, α1B, α2A, β1, M1, M2, M3, M4, M5, μ, κ, δ, A1, A2A, H1, H2, H3, H4.

[2] = system: hypothalamic 5-HT levels; assay: In vivo microdialysis, extracellular 5-HT; parameters: species or system rats
Description: The effect of albiflorin on extracellular monoamine levels in […] was determined using methods previously described. Microdialysis probes (CMA Microdialysis) with an active membrane surface of 2 mm were perfused with artificial cerebrospinal fluid (125 mM NaCl, 3 mM KCl, 0.75 mM MgSO4 and 1.2 mM CaCl2, pH 7.4) in situ for at least 18 h before experimentation. The microdialysis probe was then implanted via the guide cannula into the hypothalamus and perfused with artificial cerebral spinal fluid at a flow rate of 1 μL/min. A 3-h stabilisation period was allowed after probe implantation, and dialysate sampling was conducted according to previously described methods. […] All subsequent values were expressed as a percentage of the mean preinjection value (i.e., percentage of baseline). […] For a minimum of 3 h after albiflorin administration, dialysis samples were collected every 20 min and analysed to determine the levels of NE, 5-HT and DA. […] A 20-μL sample from the hypothalamus was analysed for 5-HT, NE and DA content using methods described previously. […] External standard curves were used to quantify the amounts of NE, 5-HT and DA in each sample, which was calculated using the area under the curve.
(§2) All data for inhibition curves were analysed by nonlinear regression using Prism software (GraphPad Software Inc., San Diego, CA) to determine IC50 values. […]

[3] = target: D5 (Homo sapiens, UniProt P21918); assay: CNS receptor binding, dopamine D5; conditions: HEK293 cell line, [3H]-SCH23390(1)
Sequence of D5 (P21918 whole entry): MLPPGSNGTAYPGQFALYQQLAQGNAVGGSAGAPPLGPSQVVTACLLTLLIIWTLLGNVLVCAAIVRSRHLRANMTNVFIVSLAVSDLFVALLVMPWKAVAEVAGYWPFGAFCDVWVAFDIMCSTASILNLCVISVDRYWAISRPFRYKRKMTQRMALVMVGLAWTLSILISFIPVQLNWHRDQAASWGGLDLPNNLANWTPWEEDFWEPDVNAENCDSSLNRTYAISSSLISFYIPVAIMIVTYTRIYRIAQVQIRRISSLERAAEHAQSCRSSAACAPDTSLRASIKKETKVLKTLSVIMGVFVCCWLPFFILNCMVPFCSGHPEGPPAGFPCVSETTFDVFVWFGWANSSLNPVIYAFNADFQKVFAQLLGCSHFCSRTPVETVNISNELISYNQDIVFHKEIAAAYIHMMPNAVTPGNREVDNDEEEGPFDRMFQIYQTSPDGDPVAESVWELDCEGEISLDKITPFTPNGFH
Description: as §1

[4] = target: H2 (Homo sapiens, UniProt P25021); assay: CNS receptor binding, histamine H2; conditions: HEK293 cell line, [3H]-tiotodine(1)
Sequence of H2 (P25021 whole entry): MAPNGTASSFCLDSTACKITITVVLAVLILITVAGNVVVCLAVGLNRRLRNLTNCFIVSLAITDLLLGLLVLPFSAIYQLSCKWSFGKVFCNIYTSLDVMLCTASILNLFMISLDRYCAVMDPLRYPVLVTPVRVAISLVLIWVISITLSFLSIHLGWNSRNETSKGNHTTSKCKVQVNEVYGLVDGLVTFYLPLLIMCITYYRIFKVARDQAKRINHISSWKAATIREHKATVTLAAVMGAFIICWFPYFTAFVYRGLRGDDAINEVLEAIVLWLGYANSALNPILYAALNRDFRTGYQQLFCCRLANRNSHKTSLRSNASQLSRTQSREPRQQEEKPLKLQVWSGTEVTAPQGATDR
Description: as §1

[5] = target: T2, hSERT (Homo sapiens, UniProt P31645); format: binding
T2 construct: expressed in transfected cells
T2 sequence (P31645 whole entry): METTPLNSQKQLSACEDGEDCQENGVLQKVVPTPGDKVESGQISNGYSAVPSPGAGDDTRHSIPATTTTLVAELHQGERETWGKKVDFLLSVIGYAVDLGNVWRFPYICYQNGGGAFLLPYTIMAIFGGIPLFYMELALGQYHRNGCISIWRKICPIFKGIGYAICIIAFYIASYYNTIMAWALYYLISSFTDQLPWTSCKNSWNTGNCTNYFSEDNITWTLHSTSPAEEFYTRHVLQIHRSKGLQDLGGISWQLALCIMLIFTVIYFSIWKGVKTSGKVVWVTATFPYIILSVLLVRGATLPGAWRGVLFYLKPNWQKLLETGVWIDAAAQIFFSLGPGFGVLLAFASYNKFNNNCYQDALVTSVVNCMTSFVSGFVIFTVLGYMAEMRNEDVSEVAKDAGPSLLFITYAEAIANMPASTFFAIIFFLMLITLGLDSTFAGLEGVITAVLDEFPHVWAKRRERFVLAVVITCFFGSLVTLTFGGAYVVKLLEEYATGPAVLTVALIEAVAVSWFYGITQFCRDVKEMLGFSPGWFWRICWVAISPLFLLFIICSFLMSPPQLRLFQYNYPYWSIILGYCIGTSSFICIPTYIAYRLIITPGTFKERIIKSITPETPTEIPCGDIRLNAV
Description: (§3) Membranes were prepared from HEK293 cells stably expressing hSERT, hNET, or hDAT as described previously. Briefly, [^3H]-citalopram (1 nM), [^3H]-nisoxetine (2 nM), or [^3H]-WIN35,428 (2 nM) was used to label human 5-HT, NE, or DA transporters, respectively.
(§4) All data for inhibition curves were analysed by nonlinear regression using Prism software (GraphPad Software Inc., San Diego, CA) to determine IC50 values. For the microdialysis experiments, two-way repeated-measures ANOVA followed by Tukey’s test was used to compare the percentage increase over baseline between groups, time and treatment as independent factors, and time as the repeated factor.

[6] = target: T3, SERT (Rattus norvegicus, UniProt P31652); assay: Rat synaptosome uptake assay, [3H]-5-HT; format: biochemical; conditions: Mid brain synaptosome
T3 construct: rat brain synaptosomes were prepared and treated with various concentrations of albiflorin; from tissue; host or cells: Sprague-Dawley rat brain synaptosomes (cerebral cortex in the text)
T3 sequence (P31652 whole entry): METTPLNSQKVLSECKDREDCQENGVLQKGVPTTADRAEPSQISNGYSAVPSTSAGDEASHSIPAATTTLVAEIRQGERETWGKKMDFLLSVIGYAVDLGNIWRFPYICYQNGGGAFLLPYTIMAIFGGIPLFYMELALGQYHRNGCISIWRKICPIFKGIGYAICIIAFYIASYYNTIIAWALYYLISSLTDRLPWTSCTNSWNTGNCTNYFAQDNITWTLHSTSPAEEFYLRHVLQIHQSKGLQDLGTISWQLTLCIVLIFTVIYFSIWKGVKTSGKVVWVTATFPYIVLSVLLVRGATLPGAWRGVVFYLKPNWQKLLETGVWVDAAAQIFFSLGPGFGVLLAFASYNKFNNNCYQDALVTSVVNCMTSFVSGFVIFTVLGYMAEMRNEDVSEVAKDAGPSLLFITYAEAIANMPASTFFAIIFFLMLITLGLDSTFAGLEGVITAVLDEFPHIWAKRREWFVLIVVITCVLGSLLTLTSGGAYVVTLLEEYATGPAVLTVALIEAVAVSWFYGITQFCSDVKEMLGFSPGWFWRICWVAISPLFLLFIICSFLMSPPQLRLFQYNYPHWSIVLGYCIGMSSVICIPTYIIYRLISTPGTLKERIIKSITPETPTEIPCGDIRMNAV
Description: Male Sprague–Dawley rats were killed by asphyxiation with carbon dioxide and cervical dislocation followed by decapitation. […] All dissected tissues were homogenised using a Teflon-glass tissue homogeniser in 4 mL of ice-cold sucrose (0.32 M). The homogenised tissue was centrifuged at 2,000× g for 10 min at 4 °C. […] Bio-Rad protein assay reagents (1:5 ratio) were used to analyse the protein concentration of the synaptosomal suspension. Uptake of 5-HT, NE and DA was determined as described previously. The compounds to be tested were dissolved in DMSO, further diluted with assay buffer, and tested over a 10-log unit concentration range in duplicate. Samples of 30–50 μg of synaptosomes (per sample in a total volume of 200 μL) were preincubated at 37 °C in a shaking water bath for 10 min. Vehicle or modifiers were then added for 10–20 min. Uptake was initiated by adding [^3H]-5-HT (20 nM), [^3H]-NE (20 nM), or [^3H]-DA (50 nM). After a 10-min incubation at 37 °C, uptake was terminated by filtration through (polyethyleneimine-coated) GF/B Whatman filters using a Brandel Cell Harvester (Brandel, Gaithersburg, MD).
as §2

[7] = target: H3 (Homo sapiens, UniProt Q9Y5N1); assay: CNS receptor binding, histamine H3; conditions: CHO cell line, [3H]-hestamine(1)
Sequence of H3 (Q9Y5N1 whole entry): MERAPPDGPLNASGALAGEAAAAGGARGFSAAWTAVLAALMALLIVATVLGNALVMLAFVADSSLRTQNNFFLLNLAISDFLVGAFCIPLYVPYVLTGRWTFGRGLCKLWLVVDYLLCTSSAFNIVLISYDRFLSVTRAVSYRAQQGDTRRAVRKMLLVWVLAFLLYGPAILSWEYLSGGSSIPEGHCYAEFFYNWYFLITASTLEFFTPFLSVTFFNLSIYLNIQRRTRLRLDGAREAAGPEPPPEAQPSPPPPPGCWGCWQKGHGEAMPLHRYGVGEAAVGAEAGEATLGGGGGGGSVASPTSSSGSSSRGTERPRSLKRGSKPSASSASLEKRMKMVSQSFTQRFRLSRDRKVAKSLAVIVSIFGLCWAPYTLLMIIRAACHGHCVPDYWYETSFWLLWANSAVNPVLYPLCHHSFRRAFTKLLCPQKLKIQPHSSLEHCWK
Description: as §1

[8] = target: 5-HT1A (Homo sapiens, UniProt P08908); assay: CNS receptor binding, 5-HT1A; conditions: HEK293 cell line, [3H]-8-OH-DPAT(2)
Sequence of 5-HT1A (P08908 whole entry): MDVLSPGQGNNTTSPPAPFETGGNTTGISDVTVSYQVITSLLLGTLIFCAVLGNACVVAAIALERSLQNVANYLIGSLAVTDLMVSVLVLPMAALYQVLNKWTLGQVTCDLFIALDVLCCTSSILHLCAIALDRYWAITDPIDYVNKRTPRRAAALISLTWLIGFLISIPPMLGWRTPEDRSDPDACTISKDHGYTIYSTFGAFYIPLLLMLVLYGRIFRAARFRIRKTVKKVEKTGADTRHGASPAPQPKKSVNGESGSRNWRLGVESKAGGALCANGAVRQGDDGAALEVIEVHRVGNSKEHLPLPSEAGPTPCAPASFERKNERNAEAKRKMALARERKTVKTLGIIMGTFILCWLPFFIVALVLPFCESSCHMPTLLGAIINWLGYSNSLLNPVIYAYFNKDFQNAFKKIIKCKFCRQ
Description: as §1

[9] = target: T4, hDAT (Homo sapiens, UniProt Q01959); conditions: [3H]-win35,428, HEK293 cell line, read-out: Ki values, DAT binding
T4 construct: expressed in transfected cells
T4 sequence (Q01959 whole entry): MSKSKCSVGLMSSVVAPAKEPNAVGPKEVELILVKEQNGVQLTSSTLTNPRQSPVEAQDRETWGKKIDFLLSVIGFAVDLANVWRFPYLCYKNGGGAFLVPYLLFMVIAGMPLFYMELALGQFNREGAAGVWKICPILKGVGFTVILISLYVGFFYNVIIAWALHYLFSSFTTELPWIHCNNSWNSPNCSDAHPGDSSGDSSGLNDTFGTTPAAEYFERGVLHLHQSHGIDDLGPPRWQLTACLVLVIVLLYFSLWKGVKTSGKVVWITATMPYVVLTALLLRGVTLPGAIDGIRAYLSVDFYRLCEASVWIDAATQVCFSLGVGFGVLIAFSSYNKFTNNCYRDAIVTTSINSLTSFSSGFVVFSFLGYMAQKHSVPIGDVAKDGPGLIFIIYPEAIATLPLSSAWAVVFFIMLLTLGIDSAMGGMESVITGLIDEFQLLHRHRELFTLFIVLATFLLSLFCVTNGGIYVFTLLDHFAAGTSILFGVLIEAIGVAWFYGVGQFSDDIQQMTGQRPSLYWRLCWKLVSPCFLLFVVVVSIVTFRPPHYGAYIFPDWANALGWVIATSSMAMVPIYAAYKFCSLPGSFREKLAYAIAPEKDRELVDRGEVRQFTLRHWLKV
Description: as §3, §4

[10] = target: H4 (Homo sapiens, UniProt Q9H3N8); assay: CNS receptor binding, histamine H4; conditions: CHO cell line, [3H]-histamine(1)
Sequence of H4 (Q9H3N8 whole entry): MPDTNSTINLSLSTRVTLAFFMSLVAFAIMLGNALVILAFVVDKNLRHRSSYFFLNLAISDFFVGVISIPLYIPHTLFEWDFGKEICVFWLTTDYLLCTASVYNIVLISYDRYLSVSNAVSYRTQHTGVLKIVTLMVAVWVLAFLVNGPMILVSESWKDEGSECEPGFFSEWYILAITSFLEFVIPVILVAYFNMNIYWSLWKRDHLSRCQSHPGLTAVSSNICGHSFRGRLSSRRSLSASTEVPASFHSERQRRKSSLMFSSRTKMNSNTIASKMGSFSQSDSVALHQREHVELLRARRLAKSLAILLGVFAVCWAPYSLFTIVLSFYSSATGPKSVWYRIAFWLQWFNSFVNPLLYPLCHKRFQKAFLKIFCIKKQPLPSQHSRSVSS
Description: as §1

[11] = target: M2 (Homo sapiens, UniProt P08172); assay: CNS receptor binding, muscarinic M2; conditions: HEK293 cell line, [3H]-NMS(1)
Sequence of M2 (P08172 whole entry): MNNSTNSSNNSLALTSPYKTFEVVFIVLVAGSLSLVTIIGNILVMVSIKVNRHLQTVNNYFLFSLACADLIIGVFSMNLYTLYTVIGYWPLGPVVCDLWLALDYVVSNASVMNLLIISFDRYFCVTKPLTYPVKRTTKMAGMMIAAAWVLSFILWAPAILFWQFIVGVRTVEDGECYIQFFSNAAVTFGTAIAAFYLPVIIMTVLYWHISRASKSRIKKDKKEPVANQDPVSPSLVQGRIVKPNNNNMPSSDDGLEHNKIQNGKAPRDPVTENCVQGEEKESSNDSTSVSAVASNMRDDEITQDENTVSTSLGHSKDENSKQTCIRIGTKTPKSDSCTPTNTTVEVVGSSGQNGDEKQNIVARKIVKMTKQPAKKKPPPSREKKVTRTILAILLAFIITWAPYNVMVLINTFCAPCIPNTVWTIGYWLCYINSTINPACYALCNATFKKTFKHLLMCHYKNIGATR
Description: as §1

[12] = target: T5, D1 (Homo sapiens, UniProt P21728); assay: CNS receptor binding, dopamine D1; conditions: HEK293 cell line, [3H]-SCH23390(1)
T5 construct: expressed in transfected cells; host or cells: HEK293 cell line
T5 sequence (P21728 whole entry): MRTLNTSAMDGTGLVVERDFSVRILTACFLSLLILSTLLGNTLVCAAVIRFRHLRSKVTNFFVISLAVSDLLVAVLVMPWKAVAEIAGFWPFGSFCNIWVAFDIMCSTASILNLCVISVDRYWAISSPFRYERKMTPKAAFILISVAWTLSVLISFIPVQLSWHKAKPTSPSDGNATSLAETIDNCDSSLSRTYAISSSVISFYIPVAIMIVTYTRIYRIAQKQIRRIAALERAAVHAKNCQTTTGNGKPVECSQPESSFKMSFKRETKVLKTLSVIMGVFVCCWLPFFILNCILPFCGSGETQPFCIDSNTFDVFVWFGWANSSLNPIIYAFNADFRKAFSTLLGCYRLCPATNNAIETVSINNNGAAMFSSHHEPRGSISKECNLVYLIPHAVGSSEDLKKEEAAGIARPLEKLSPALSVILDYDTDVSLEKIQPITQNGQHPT
Description: as §1

[13] = read-out: IC50 values for albiflorin

## C[C@]12C[C@@H](O)[C@@H]3C[C@@]1(O[C@@H]1O[C@H](CO)[C@@H](O)[C@H](O)[C@H]1O)[C@@]3(COC(=O)c1ccccc1)C(=O)O2 [albiflorin, Albiflorin]
[1]
  IC50: 3.66 ± 0.212 µM
[2]; acute oral administration, 3.5, 7.0, 14.0 mg/kg, freely moving rats, vs vehicle
  effect on hypothalamic 5-HT levels: significant increase
[2]; oral, rats, microdialysis
  time of peak 5-HT increase post administration: 1 h
[3]
  % Inhibition of binding at 10 μM albiflorin: 32.50%
[3]; [13]
  IC50: > 10 µM
[4]
  % Inhibition of binding at 10 μM albiflorin: 68.99%
[4]; [13]
  IC50: 4 ± 0.201 µM
[5]; Human, [3H]-citalopram, HEK293 cell line, read-out: Ki values, SERT binding
  Ki: 0.00645 ± 0.00048 µM
[5]; albiflorin vs fluoxetine
  affinity relative to fluoxetine in human SERT binding assay: 17 fold
[6]
  IC50: 0.00304 ± 0.00084 µM
[7]
  % Inhibition of binding at 10 μM albiflorin: 12.33%
[7]; [13]
  IC50: > 10 µM
[8]
  % Inhibition of binding at 10 μM albiflorin: 69.60%
[8]; [13]
  IC50: 4 ± 0.662 µM
[9]
  Ki: 1.48 ± 0.0333 µM
[10]
  % Inhibition of binding at 10 μM albiflorin: 6.33%
[10]; [13]
  IC50: > 10 µM
[11]
  % Inhibition of binding at 10 μM albiflorin: 13.33%
[11]; [13]
  IC50: > 10 µM
[12]
  % Inhibition of binding at 10 μM albiflorin: 54.20%
[12]; [13]
  IC50: 2.99 ± 0.166 µM
